{"source": "paper PMC2254147", "about": "“Novel Triazine JPC-2067-B Inhibits Toxoplasma gondii In Vitro and In Vivo” (PLoS Neglected Tropical Diseases, 2008)", "key": {"P. falciparum": {"system": "P. falciparum", "settings": "ref [4]-[11]; cited from earlier work"}, "[1]": {"system": "tester strains TA97, TA98, TA100, TA102 and TA1535", "assay": "Ames Test with and without microsomal activation", "method": "(§1) A 42-day toxicology study in CD-1 mice at doses up to 98 mg/kg evaluating well-being, weight gain, and histopathology was performed. […] 7.5 mg/kg was established as the NOAEL (No Observed Adverse Effect Level). JPC-2056 and JPC-2067 were assayed in the Ames Test with and without microsomal activation with tester strains TA97, TA98, TA100, TA102 and TA1535."}, "[2]": {"assay": "42-day toxicology study in Macaca fascicularis", "format": "in vivo"}, "[3]": {"assay": "Thompson Antimalarial Assay LD50", "settings": "mouse, in vivo; @ Day 6"}, "[4]": {"assay": "42-day toxicology study in CD-1 mice", "format": "in vivo", "method": "as §1"}, "Mav DHFR": {"molecular_target": "T1, Mav DHFR (Mycobacterium avium, UniProt O30463)", "T1 construct": "the bacteria were centrifuged, sonicated, and the 100,000 Xg supernate was stored under liquid nitrogen until assay; endogenous in cells; host or cells: M. avium-intracellulare clinical isolate (serovar 4), Indiana University School of Medicine", "T1 sequence (O30463 1-181)": "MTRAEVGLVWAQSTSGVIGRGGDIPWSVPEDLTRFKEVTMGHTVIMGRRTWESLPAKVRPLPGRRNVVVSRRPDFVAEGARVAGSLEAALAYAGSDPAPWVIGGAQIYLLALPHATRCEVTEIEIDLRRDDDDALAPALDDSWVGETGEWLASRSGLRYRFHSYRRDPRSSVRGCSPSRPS", "assay": "Spectrophotometric DHFR assay, Mycobacterium avium-intracellulare DHFR", "format": "biochemical", "settings": "37°C; (95% confidence limits)", "method": "Mycobacterium avium-intracellulare used in these studies was a clinical isolate (serovar 4) from Indiana University School of Medicine, Department of Pathology. The strain was maintained on Lowenstein-Jensen slants (Baxter Scientific) grown at room temperature. To produce enzyme, the organism was grown in Middlebrook 7H-9 liquid medium at 37°C to an OD660 of 0.5 to 0.7, which took several weeks. At harvest, the bacteria were centrifuged, sonicated, and the 100,000 Xg supernate was stored under liquid nitrogen until assay. These supernates contained both DHFR and dihydroopteroate synthetase activity.\nThe spectrophotometric assay for DHFR was optimized for temperature and concentration of substrate and cofactor for each enzyme. The standard assay contained Na phosphate buffer pH 7.4 (40.7 mM), 2-mercaptoethanol (8.9 mM), NADPH (0.117 mM), dihydrofolic acid (0.09 mM), KCL (150 mM), and sufficient enzyme to produce a change in OD340 of 0.035/minute at 37°C. The reaction was continuously recorded for 3 minutes. Activity under these conditions was linear with enzyme concentration over a 4-fold range. The low background activity in the absence of dihydrofolic acid was subtracted from all rates.\n(§2) DHFR was assayed with several concentrations of inhibitor to produce rates ranging from 1 to 90% of the uninhibited rate. At least three concentrations were required for calculation; most curves contained five concentrations."}, "Pc DHFR": {"molecular_target": "T2, Pc DHFR (Pneumocystis carinii, UniProt P16184)", "T2 construct": "made in house; host or cells: Escherichia coli", "T2 sequence (P16184 1-206)": "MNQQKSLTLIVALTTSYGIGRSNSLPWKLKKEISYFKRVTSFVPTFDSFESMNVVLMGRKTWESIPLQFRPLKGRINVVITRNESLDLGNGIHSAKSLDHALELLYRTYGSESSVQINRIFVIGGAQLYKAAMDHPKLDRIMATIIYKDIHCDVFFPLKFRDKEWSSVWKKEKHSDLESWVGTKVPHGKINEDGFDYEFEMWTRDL", "assay": "Spectrophotometric DHFR assay, Pneumocystis carinii DHFR", "format": "biochemical", "description": "DHFR from Pneumocystis carinii was produced as the recombinant enzyme expressed in Escherichia coli. […] DHFR from T. gondii was isolated directly from RH strain T. gondii grown in culture on Chinese hamster ovary cells lacking DHFR (CHO/dhfr^-, American Type Culture Collection 3952 CL). Organisms were introduced into a confluent monolayer and harvested when the mammalian cells were lysed. The 100,000× g supernate was stored in liquid nitrogen.\nThe spectrophotometric assay for DHFR was optimized for temperature and concentration of substrate and cofactor for each enzyme. The standard assay contained Na phosphate buffer pH 7.4 (40.7 mM), 2-mercaptoethanol (8.9 mM), NADPH (0.117 mM), dihydrofolic acid (0.09 mM), KCL (150 mM), and sufficient enzyme to produce a change in OD340 of 0.035/minute at 37°C. The reaction was continuously recorded for 3 minutes. […] The low background activity in the absence of dihydrofolic acid was subtracted from all rates.\nas §2"}, "TgDHFR": {"molecular_target": "T3, TgDHFR (Toxoplasma gondii, UniProt Q07422)", "T3 construct": "DHFR from T. gondii was isolated directly from RH strain T. gondii grown in culture; endogenous in cells; host or cells: RH strain T. gondii grown on CHO/dhfr- cells", "T3 sequence (Q07422 1-610)": "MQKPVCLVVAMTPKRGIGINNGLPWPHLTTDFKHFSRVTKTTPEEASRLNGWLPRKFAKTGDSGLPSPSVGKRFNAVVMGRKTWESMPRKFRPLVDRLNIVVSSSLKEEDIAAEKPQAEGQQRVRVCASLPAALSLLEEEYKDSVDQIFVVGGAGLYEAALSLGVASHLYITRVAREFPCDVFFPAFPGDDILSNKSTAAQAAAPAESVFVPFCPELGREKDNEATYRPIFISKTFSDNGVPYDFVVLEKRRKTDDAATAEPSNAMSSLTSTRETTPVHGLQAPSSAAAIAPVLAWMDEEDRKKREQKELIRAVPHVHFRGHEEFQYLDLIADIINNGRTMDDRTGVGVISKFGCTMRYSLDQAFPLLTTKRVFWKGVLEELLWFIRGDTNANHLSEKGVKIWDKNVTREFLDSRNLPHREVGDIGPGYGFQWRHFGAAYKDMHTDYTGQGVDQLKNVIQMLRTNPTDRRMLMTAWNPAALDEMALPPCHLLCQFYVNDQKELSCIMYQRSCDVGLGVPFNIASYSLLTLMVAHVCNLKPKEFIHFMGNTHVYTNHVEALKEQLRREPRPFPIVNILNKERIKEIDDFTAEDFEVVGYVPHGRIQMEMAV", "assay": "biochemical", "format": "biochemical", "method": "DHFR from Pneumocystis carinii was produced as the recombinant enzyme expressed in Escherichia coli. […] Organisms were introduced into a confluent monolayer and harvested when the mammalian cells were lysed. The 100,000× g supernate was stored in liquid nitrogen.\n(§3) The spectrophotometric assay for DHFR was optimized for temperature and concentration of substrate and cofactor for each enzyme. […] The reaction was continuously recorded for 3 minutes. […] The low background activity in the absence of dihydrofolic acid was subtracted from all rates.\nas §2"}, "Rat liver DHFR": {"molecular_target": "T4, Rat liver DHFR (Rattus norvegicus, UniProt Q920D2)", "T4 construct": "Rat liver DHFR was prepared from livers of female Sprague-Dawley rats; from tissue; host or cells: liver of female Sprague-Dawley rats", "T4 sequence (Q920D2 1-187)": "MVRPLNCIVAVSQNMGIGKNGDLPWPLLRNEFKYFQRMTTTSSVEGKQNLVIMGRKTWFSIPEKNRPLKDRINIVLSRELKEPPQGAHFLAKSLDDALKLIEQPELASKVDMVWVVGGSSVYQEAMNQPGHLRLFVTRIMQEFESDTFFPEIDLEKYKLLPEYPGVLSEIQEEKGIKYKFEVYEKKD", "assay": "Spectrophotometric DHFR assay, rat liver DHFR", "format": "biochemical", "settings": "for IC50: 37°C, (95% confidence limits); for Selectivity for pathogen DHFR (in words): rat liver DHFR versus Pc, Tg, Mav DHFR, Table 1", "method": "Rat liver DHFR was prepared from livers of female Sprague-Dawley rats. The 100,000× g supernate was partially purified by ammonium sulfate precipitation; the 50–90% precipitate was re-dissolved and stored in liquid nitrogen.\nas §3, §2"}, "P. falciparum strains": {"system": "P. falciparum strains", "settings": "drug-sensitive and drug-resistant strains; ref [4]-[10]; cited from earlier work"}, "[5]": {"settings": "ref 4 (superscript at the row head, footnote not given); cited from earlier work"}, "[6]": {"settings": "ref 4 (superscript at the row head, footnote not given); cited from earlier work", "remark": "listed apart in the source"}, "[7]": {"system": "tester strains TA97, TA98, TA100, TA102 and TA1535", "assay": "Ames Test with and without microsomal activation", "settings": "Tester Strains TA98, TA100, TA1535, TA1537 and TA1538"}, "[8]": {"settings": "42-day study, doses up to 98 mg/kg"}}, "note": "Read-outs that look alike come from different tables or passages of the source.", "data": [{"compound": "CC(C)N=C(N)/N=C(\\N)NOCCCOc1cc(Cl)c(Cl)cc1Cl.Cl", "note": "[PS-15]", "values": [{"measurement": "Activity in vivo against P. falciparum, greater than that of pyrimethamine", "setting": "P. falciparum", "result": 2, "unit": "logs"}]}, {"compound": "CC(C)NC(=N)NC(=N)NOCCCOc1ccc(OC(F)(F)F)cc1Cl", "note": "[JPC-2056, 1-(3′-(2-chloro-4-trifluoromethoxyphenyloxy)propyloxy)-5-isopropylbiguanide]", "values": [{"measurement": "Ames Test, with and without microsomal activation", "setting": "[1]", "result": "No activity"}, {"measurement": "Ames w/o Activation", "setting": "[1]", "result": "Not Active ^*"}, {"measurement": "Ames with Activation", "setting": "[1]", "result": "Not Active ^*"}, {"measurement": "Toxicological findings, Cynomolgous Monkey", "setting": "[2]; 15 mg/kg for 42 days", "result": "Intermittent Loose Stools/Diarrhea 15 mg/kg for 42 days"}, {"measurement": "Findings in Macaca fascicularis at 15 mg/kg", "setting": "[2]; 42-day study, 15 mg/kg, resolved upon drug withdrawal", "result": "histopathology findings at 15 mg/kg with sproradic episodes of loose stools/diarrhea"}, {"measurement": "NOAEL at 42 day", "setting": "[2]; cynomolgus monkey, in vivo, 42-day study, read-out: NOAEL (No Observed Adverse Effect Level)", "result": 7.5, "unit": "mg/kg"}, {"measurement": "LD50 at 6 day", "setting": "[3]", "result": 256, "unit": "mg/kg"}, {"measurement": "Toxicological findings, CD-1 Mice", "setting": "[4]; 98 mg/kg for 42 days", "result": "Inhibition of Weight Gain at 98 mg/kg for 42 days"}, {"measurement": "Gross pathology, CD-1 mice", "setting": "[4]; [8]", "result": "no gross pathology with the exception of a reduction in the rate of weight gain"}, {"measurement": "Histopathology findings, CD-1 mice", "setting": "[4]; [8]", "result": "no histopathology findings"}]}, {"compound": "CC1(C)N=C(N)N=C(N)N1c1ccc(Cl)cc1", "note": "[JPC-2013-B-1, cycloguanil]", "values": [{"measurement": "IC50", "setting": "Mav DHFR", "result": 12.1, "unit": "µM"}, {"measurement": "IC50", "setting": "Pc DHFR", "result": 8.9, "unit": "µM"}, {"measurement": "IC50", "setting": "TgDHFR", "result": 0.41, "unit": "µM"}, {"measurement": "IC50", "setting": "Rat liver DHFR", "result": 1.73, "unit": "µM"}, {"measurement": "Selectivity for pathogen DHFR (in words)", "setting": "Rat liver DHFR", "result": "not significantly selective"}]}, {"compound": "CC1(C)N=C(N)N=C(N)N1OCCCOc1cc(Cl)c(Cl)cc1Cl", "note": "[JPC-208-B, 4,6-diamino-1,2-dihydro-2,2-dimethyl-1-[3′(2,4,5-trichlorophenoxy)propyloxy]-1,3,5-triazine]", "values": [{"measurement": "ED50 in vitro against P. falciparum strains", "setting": "P. falciparum strains", "result": 0.05, "unit": "ng/mL"}, {"measurement": "IC50", "setting": "Mav DHFR", "result": 0.00057, "unit": "µM"}, {"measurement": "Oral LD50 Rat", "setting": "[5]", "result": "1,980 mg/kg"}, {"measurement": "LD50 at 6 day", "setting": "[3]", "result": "> 128", "unit": "mg/kg"}, {"measurement": "Activity in vivo against P. falciparum, greater than that of pyrimethamine", "setting": "P. falciparum", "result": 2, "unit": "logs"}, {"measurement": "Oral LD50 Mouse", "setting": "[6]", "result": "3,510 mg/kg"}, {"measurement": "IC50", "setting": "Pc DHFR; 37°C, (95% confidence limits), read-out: Pc DHFR IC50", "result": 0.000265, "unit": "µM"}, {"measurement": "Ames w/o Activation", "setting": "[7]", "result": "Not Active ^#"}, {"measurement": "Ames with Activation", "setting": "[7]", "result": "Not Active ^#"}, {"measurement": "IC50", "setting": "TgDHFR; 37°C, (95% confidence limits), read-out: Tg DHFR IC50", "result": 0.000602, "unit": "µM"}, {"measurement": "IC50", "setting": "Rat liver DHFR", "result": 0.00081, "unit": "µM"}, {"measurement": "Selectivity for pathogen DHFR (in words)", "setting": "Rat liver DHFR", "result": "not selective"}]}, {"compound": "CCc1nc(N)nc(N)c1-c1ccc(Cl)cc1", "note": "[JPC-1090-A-1, Pyrimethamine]", "values": [{"measurement": "IC50", "setting": "Mav DHFR", "result": 1.2, "unit": "µM"}, {"measurement": "IC50", "setting": "Pc DHFR", "result": 6.17, "unit": "µM"}, {"measurement": "IC50", "setting": "Rat liver DHFR", "result": 1.32, "unit": "µM"}]}]}
